Values of other authors as cited in patent US20180250233A1, “TABLETS HAVING MEDIA INDEPENDENT ACTIVE SUBSTANCE DELIVERY” (MERCK PATENT GMBH, priority 2015, published 2018).

- elimination half-life (in vivo): 2 to 6 h
- bioavailability (oral administration, pronounced first-pass metabolism): 25-30%
Compound: CC(C)NCC(O)COc1cccc2ccccc12 (centres unmarked) [propranolol]
